Data reported in patent publication US10287301B2 (Achillion Pharmaceuticals, Inc., priority 2015, dated 2019).

Molecular target: Human Factor D (Homo sapiens (Human), UniProt P00746)
Assay: Human Factor D Assay
Format: biochemical
Details: Human Factor D 80 nM, substrate Z-L-Lys-SBzl; read-out: IC50
Summary of the method: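 IC50 values derive from nonlinear regression of Factor D reaction rates against compound concentration. The enzyme, purified from human serum, is used at 80 nM final with a 5 min room-temperature compound preincubation in 50 mM Tris, 1M NaCl, pH 7.5, before 100 μM Z-L-Lys-SBzl plus 100 μM DTNB are added.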

Human Factor D, sequence (P00746 26-253): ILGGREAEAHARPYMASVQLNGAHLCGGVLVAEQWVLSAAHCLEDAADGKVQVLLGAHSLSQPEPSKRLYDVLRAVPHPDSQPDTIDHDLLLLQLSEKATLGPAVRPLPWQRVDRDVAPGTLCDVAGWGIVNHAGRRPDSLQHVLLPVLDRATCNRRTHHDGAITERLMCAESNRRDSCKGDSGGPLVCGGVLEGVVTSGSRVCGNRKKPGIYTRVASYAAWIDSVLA

SMILES	IC50 [µM]
CC(=O)c1cn(CC(=O)N2C[C@H](F)C[C@H]2C(=O)N[C@H]2CCCC[C@@H]2OCc2ccccc2)c2ccc(-c3ccnnc3)cc12 [Compound 74, (2S,4R)-1-(2-(3-acetyl-5-(pyridazin-4-yl)-1H-indol-1-yl)acetyl)-N-((1S,2S)-2-(benzyloxy)cyclohexyl)-4-fluoropyrrolidine-2-carboxamide]	> 10
CC(=O)c1cn(CC(=O)N2C[C@H](F)C[C@H]2C(=O)Nc2ccc3c(c2)OC(C)(C)C3)c2ccc(-c3ccnnc3)cc12 [Compound 75, (2S,4R)-1-(2-(3-acetyl-5-(pyridazin-4-yl)-1H-indol-1-yl)acetyl)-N-(2,2-dimethyl-2,3-dihydrobenzofuran-6-yl)-4-fluoropyrrolidine-2-carboxamide]	< 1
CC1(C)Cc2ccc(NC(=O)[C@@H]3C[C@@H](F)CN3C(=O)Cn3nc(C(N)=O)c4cc(-c5ccnnc5)ccc43)cc2O1 [Compound 76, 1-(2-((2S,4R)-2-(2,2-dimethyl-2,3-dihydrobenzofuran-6-ylcarbamoyl)-4-fluoropyrrolidin-1-yl)-2-oxoethyl)-5-(pyridazin-4-yl)-1H-indazole-3-carboxamide]	< 1
CC(=O)c1cn(CC(=O)N2C[C@H](F)C[C@H]2C(=O)N[C@H]2CCC[C@@H]2OCc2ccccc2)c2ccc(-c3ccnnc3)cc12 [Compound 77, (2S,4R)-1-(2-(3-acetyl-5-(pyridazin-4-yl)-1H-indol-1-yl)acetyl)-N-((1S,2S)-2-(benzyloxy)cyclopentyl)-4-fluoropyrrolidine-2-carboxamide]	> 10
NC(=O)c1nn(CC(=O)N2C[C@H](F)C[C@H]2C(=O)N[C@H]2CCCC[C@@H]2OCc2ccccc2)c2ccc(-c3ccnnc3)cc12 [Compound 78, 1-(2-((2S,4R)-2-((1S,2S)-2-(benzyloxy)cyclohexyl-carbamoyl)-4-fluoropyrrolidin-1-yl)-2-oxoethyl)-5-(pyridazin-4-yl)-1H-indazole-3-carboxamide]	> 10
CNC(=O)[C@@H]1C[C@@H](F)CN1C(=O)Cn1nc(C(N)=O)c2cc(-c3ccnnc3)ccc21 [Compound 79, 1-(2-((2S,4R)-4-fluoro-2-(methylcarbamoyl)pyrrolidin-1-yl)-2-oxoethyl)-5-(pyridazin-4-yl)-1H-indazole-3-carboxamide]	> 10
COc1ncc(-c2ccc3c(c2)c(C(C)=O)cn3CC(=O)N2[C@@H]3C[C@@H]3C[C@H]2C(=O)Nc2cccc(-c3ccccc3Cl)c2F)cn1 [Compound 80, (1R,3S,5R)-2-(2-(3-acetyl-5-(2-methoxypyrimidin-5-yl)-1H-indol-1-yl)acetyl)-N-(2′-chloro-2-fluorobiphenyl-3-yl)-2-azabicyclo[3.1.0] hexane-3-carboxamide]	< 1
COc1ncc(-c2ccc3c(c2)c(C(C)=O)cn3CC(=O)N2[C@@H]3C[C@@H]3C[C@H]2C(=O)Nc2cccc(Br)n2)cn1 [Compound 81, (1R,3S,5R)-2-(2-(3-acetyl-5-(2-methoxypyrimidin-5-yl)-1H-indol-1-yl)acetyl)-N-(6-bromopyridin-2-yl)-2-azabicyclo[3.1.0] hexane-3-carboxamide]	< 1
CC(=O)c1cn(CC(=O)N2C[C@H](F)C[C@H]2C(=O)Nc2cccc(Br)n2)c2ccc(-c3cnc(C#N)nc3)cc12 [Compound 82, (2S,4R)-1-(2-(3-acetyl-5-(2-cyanopyrimidin-5-yl)-1H-indol-1-yl)acetyl)-N-(6-bromopyridin-2-yl)-4-fluoropyrrolidine-2-carboxamide]	< 1
CC(=O)c1cn(CC(=O)N2C[C@H](F)C[C@H]2C(=O)Nc2cccc(Br)n2)c2ccc(-c3cnc(F)nc3)cc12 [Compound 83, (2S,4R)-1-(2-(3-acetyl-5-(2-fluoropyrimidin-5-yl)-1H-indol-1-yl)acetyl)-N-(6-bromopyridin-2-yl)-4-fluoropyrrolidine-2-carboxamide]	< 1
CC(=O)c1cn(CC(=O)N2C[C@H](F)C[C@H]2C(=O)Nc2cccc(Br)n2)c2ccc(-c3cnc(C)nc3)cc12 [Compound 84, (2S,4R)-1-(2-(3-acetyl-5-(2-methylpyrimidin-5-yl)-1H-indol-1-yl)acetyl)-N-(6-bromopyridin-2-yl)-4-fluoropyrrolidine-2-carboxamide]	< 1
CC(=O)c1cn(CC(=O)N2C[C@H](F)C[C@H]2C(=O)Nc2ccc(CN)cc2)c2ccc(-c3ccnnc3)cc12 [Compound 85, (2S,4R)-1-(2-(3-acetyl-5-(pyridazin-4-yl)-1H-indol-1-yl)acetyl)-N-(4-(aminomethyl)phenyl)-4-fluoropyrrolidine-2-carboxamide]	> 10
NC(=O)c1nn(CC(=O)N2C[C@H](F)C[C@H]2C(=O)Nc2ccc3cn[nH]c3c2)c2ccc(-c3ccnnc3)cc12 [Compound 86, 1-(2-((2S,4R)-2-(1H-indazol-6-ylcarbamoyl)-4-fluoropyrrolidin-1-yl)-2-oxoethyl)-5-(pyridazin-4-yl)-1H-indazole-3-carboxamide]	> 10
CC(=O)c1cn(CC(=O)N2C[C@H](F)C[C@H]2C(=O)Nc2cncc(Cl)n2)c2ccc(-c3ccnnc3)cc12 [Compound 88, (2S,4R)-1-(2-(3-acetyl-5-(pyridazin-4-yl)-1H-indol-1-yl)acetyl)-N-(6-chloropyrazin-2-yl)-4-fluoropyrrolidine-2-carboxamide]	< 1
NC(=O)c1nn(CC(=O)N2C[C@H](F)C[C@H]2C(=O)Nc2cncc(Cl)n2)c2ccc(-c3ccnnc3)cc12 [Compound 89, 1-(2-((2S,4R)-2-(6-chloropyrazin-2-ylcarbamoyl)-4-fluoropyrrolidin-1-yl)-2-oxoethyl)-5-(pyridazin-4-yl)-1H-indazole-3-carboxamide]	< 1
NC(=O)c1nn(CC(=O)N2C[C@H](F)C[C@H]2C(=O)Nc2ccc(F)c(-c3nnc4n3CCCCC4)c2)c2ccc(-c3ccnnc3)cc12 [Compound 91, 1-(2-((2S,4R)-4-fluoro-2-(4-fluoro-3-(6,7,8,9-tetrahydro-5H-[1,2,4]triazolo[4,3-a]azepin-3-yl)phenylcarbamoyl)pyrrolidin-1-yl)-2-oxoethyl)-5-(pyridazin-4-yl)-1H-indazole-3-carboxamide]	> 10
CC(=O)c1cn(CC(=O)N2C[C@H](F)C[C@H]2C(=O)Nc2ccc(F)c(-c3nnc4n3CCCCC4)c2)c2ccc(-c3ccnnc3)cc12 [Compound 92, (2S,4R)-1-(2-(3-acetyl-5-(pyridazin-4-yl)-1H-indol-1-yl)acetyl)-4-fluoro-N-(4-fluoro-3-(6,7,8,9-tetrahydro-5H-[1,2,4]triazolo[4,3-a]azepin-3-yl)phenyl) pyrrolidine-2-carboxamide]	< 1
NC(=O)c1nn(CC(=O)N2C[C@H](F)C[C@H]2C(=O)Nc2cccc(Cl)c2C(F)(F)F)c2ccc(-c3ccnnc3)cc12 [Compound 93, 1-(2-((2S,4R)-2-(3-chloro-2-(trifluoromethyl)phenylcarbamoyl)-4-fluoropyrrolidin-1-yl)-2-oxoethyl)-5-(pyridazin-4-yl)-1H-indazole-3-carboxamide]	> 10
NC(=O)c1nn(CC(=O)N2C[C@H](F)C[C@H]2C(=O)Nc2c[nH]nc2-c2ccc(Cl)cc2Cl)c2ccc(-c3ccnnc3)cc12 [Compound 94, 1-(2-((2S,4R)-2-(3-(2,4-dichlorophenyl)-1H-pyrazol-4-ylcarbamoyl)-4-fluoropyrrolidin-1-yl)-2-oxoethyl)-5-(pyridazin-4-yl)-1H-indazole-3-carboxamide]	> 10
CC(=O)c1cn(CC(=O)N2C[C@H](F)C[C@H]2C(=O)Nc2cccc(Cl)c2-n2cncn2)c2ccc(-c3ccnnc3)cc12 [Compound 95, (2S,4R)-1-(2-(3-acetyl-5-(pyridazin-4-yl)-1H-indol-1-yl)acetyl)-N-(3-chloro-2-(1H-1,2,4-triazol-1-yl)phenyl)-4-fluoropyrrolidine-2-carboxamide]	> 10
NC(=O)c1nn(CC(=O)N2C[C@H](F)C[C@H]2C(=O)Nc2cccc(Cl)c2-n2cncn2)c2ccc(-c3ccnnc3)cc12 [Compound 96, 1-(2-((2S,4R)-2-(3-chloro-2-(1H-1,2,4-triazol-1-yl)phenylcarbamoyl)-4-fluoropyrrolidin-1-yl)-2-oxoethyl)-5-(pyridazin-4-yl)-1H-indazole-3-carboxamide]	> 10
CC(=O)c1cn(CC(=O)N2C[C@H](F)C[C@H]2C(=O)Nc2cc(C)nc3nc(C(F)(F)F)nn23)c2ccc(-c3ccnnc3)cc12 [Compound 97, (2S,4R)-1-(2-(3-acetyl-5-(pyridazin-4-yl)-1H-indol-1-yl)acetyl)-4-fluoro-N-(5-methyl-2-(trifluoromethyl)-[1,2,4]triazolo[1,5-a]pyrimidin-7-yl)pyrrolidine-2-carboxamide]	> 10
Cn1cnnc1-c1ccccc1NC(=O)[C@@H]1C[C@@H](F)CN1C(=O)Cn1nc(C(N)=O)c2cc(-c3ccnnc3)ccc21 [Compound 98, 1-(2-((2S,4R)-4-fluoro-2-(2-(4-methyl-4H-1,2,4-triazol-3-yl)phenylcarbamoyl)pyrrolidin-1-yl)-2-oxoethyl)-5-(pyridazin-4-yl)-1H-indazole-3-carboxamide]	> 10
CC(=O)c1cn(CC(=O)N2C[C@H](F)C[C@H]2C(=O)Nc2nc(-c3ccccc3Cl)ns2)c2ccc(-c3ccnnc3)cc12 [Compound 99, (2S,4R)-1-(2-(3-acetyl-5-(pyridazin-4-yl)-1H-indol-1-yl)acetyl)-N-(3-(2-chlorophenyl)-1,2,4-thiadiazol-5-yl)-4-fluoropyrrolidine-2-carboxamide]	< 1
CC(=O)c1cn(CC(=O)N2C[C@H](F)C[C@H]2C(=O)Nc2cccc(Br)n2)c2ccc(-c3ccccc3Cl)cc12 [Compound 100, (2S,4R)-1-(2-(3-acetyl-5-(2-chlorophenyl)-1H-indol-1-yl)acetyl)-N-(6-bromopyridin-2-yl)-4-fluoropyrrolidine-2-carboxamide]	< 1
Cc1ncc(-c2ccc3c(c2)c(C(N)=O)nn3CC(=O)N2C[C@H](F)C[C@H]2C(=O)Nc2cccc(Br)n2)cn1 [Compound 101, 1-(2-((2S,4R)-2-(6-bromopyridin-2-ylcarbamoyl)-4-fluoropyrrolidin-1-yl)-2-oxoethyl)-5-(2-methylpyrimidin-5-yl)-1H-indazole-3-carboxamide]	< 1
